{"source": "patent US11395857B2", "about": "“Radiolabeled melanocortin 1 receptor-specific alpha-melanocyte-stimulating hormone analogues for imaging or therapy” (PROVINCIAL HEALTH SERVICES AUTHORITY, priority 2018, dated 2022)", "tested_on": "B16-F10 tumours", "experiment": "PET/CT imaging of B16-F10 tumour-bearing mice", "assay_type": "in vivo, C57BL/6J mice", "protocol": "PET imaging experiments were conducted using a preclinical micro PET/CT scanner (Siemens inveon). For static PET scan, each tumour bearing mouse was injected with 4-6 MBq of ^68Ga-labeled CCZ01099 via tail vein under anesthesia. After the injection, mice were allowed to recover and roam freely in their cages. At 1 or 2 h p.i., the mice were sedated again with 2% isoflurane inhalation and positioned in the scanner, and kept warm by a heating pad. A 10 min baseline CT scan using 60 kV X-rays at 500 μA was obtained for localization and attenuation correction after segmentation for reconstructing the PET images. A single 12 min static PET scan was acquired following the CT scan. The mice were euthanized using CO2 inhalation after imaging."}
{"smiles": "CCCC[C@H](NC(=O)CN1CCC(NC(=O)CN2CCN(CC(=O)O)CCN(CC(=O)O)CCN(CC(=O)O)CC2)CC1)C(=O)N[C@H]1CC(=O)NCCCC[C@@H](C(N)=O)N(C)C(=O)[C@H](Cc2c[nH]c3ccccc23)N(C)C(=O)[C@H](CCCNC(=N)N)N(C)C(=O)[C@@H](Cc2ccccc2)NC(=O)[C@H](Cc2c[nH]cn2)N(C)C1=O", "note": "[^68Ga-labeled CCZ01099, metal not drawn]", "values": [{"measurement": "Tumour visualization on PET images", "setting": "1 h and 2 h p.i.", "value": "Tumours were clearly visualized"}, {"measurement": "Tumour uptake on PET with co-injection of MC1R-specific inhibitor BMS 470539", "setting": "1 h p.i., 0.5 mg BMS 470539", "value": "tumour uptake was abolished"}]}
